Assay results from PubChem BioAssay AID1963826 (Molecular Pharmacology Branch, DTP, NCI, 2024).

Tested on: 926638-142-R-J1-PDC complex spheroid viability
Experiment: Anticancer human tumor 926638-142-R-J1-PDC patient-derived endometrial carcinoma cell line growth inhibition [POLQ]
Details: for IC50: curve of first compound; for viability, T/C: stronger effect = lower value; active = viability on the fitted dose curve at most 10% of control; inactive = the rest
Outline: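 Patient-derived tumour cells were co-cultured with HUVEC and mesenchymal stem cells as multicellular spheroids at 37 °C. They were treated with POLQ inhibitors (novobiocin, ART-558, RP6685) alone or combined with other agents. Top concentrations were at or near clinical Cmax (otherwise 10 microM; SN-38 at 1 microM), decreasing in half-log steps.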

[1] = second compound 0.0316 µM, first compound 0.00316 µM
[2] = second compound 0.0316 µM, first compound 0.01 µM
[3] = second compound 0.0316 µM, first compound 0.0316 µM
[4] = second compound 0.0316 µM, first compound 0.1 µM
[5] = second compound 0.0316 µM, first compound 0.316 µM
[6] = second compound 0.0316 µM, first compound 1 µM
[7] = second compound 0.1 µM, first compound 0.00316 µM
[8] = second compound 0.1 µM, first compound 0.01 µM
[9] = second compound 0.1 µM, first compound 0.0316 µM
[10] = second compound 0.1 µM, first compound 0.1 µM
[11] = second compound 0.1 µM, first compound 0.316 µM
[12] = second compound 0.1 µM, first compound 1 µM
[13] = second compound 0.316 µM, first compound 0.00316 µM
[14] = second compound 0.316 µM, first compound 0.01 µM
[15] = second compound 0.316 µM, first compound 0.0316 µM
[16] = second compound 0.316 µM, first compound 0.1 µM
[17] = second compound 0.316 µM, first compound 0.316 µM
[18] = second compound 0.316 µM, first compound 1 µM
[19] = second compound 1 µM, first compound 0.00316 µM
[20] = second compound 1 µM, first compound 0.01 µM
[21] = second compound 1 µM, first compound 0.0316 µM
[22] = second compound 1 µM, first compound 0.1 µM
[23] = second compound 1 µM, first compound 0.316 µM
[24] = second compound 1 µM, first compound 1 µM
[25] = second compound 3.16 µM, first compound 0.00316 µM
[26] = second compound 3.16 µM, first compound 0.01 µM
[27] = second compound 3.16 µM, first compound 0.0316 µM
[28] = second compound 3.16 µM, first compound 0.1 µM
[29] = second compound 3.16 µM, first compound 0.316 µM
[30] = second compound 3.16 µM, first compound 1 µM
[31] = second compound 10 µM, first compound 0.00316 µM
[32] = second compound 10 µM, first compound 0.01 µM
[33] = second compound 10 µM, first compound 0.0316 µM
[34] = second compound 10 µM, first compound 0.1 µM
[35] = second compound 10 µM, first compound 0.316 µM
[36] = second compound 10 µM, first compound 1 µM
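Also: spheroids exposed to drugs for one week before readout.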
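For viability, T/C in this document: percent viability relative to DMSO vehicle control wells set as 100%.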

C=CCn1c(=O)c2cnc(Nc3ccc(N4CCN(C)CC4)cc3)nc2n1-c1cccc(C(C)(C)O)n1 + COC1C(OC(N)=O)C(O)C(Oc2ccc3c(O)c(NC(=O)c4ccc(O)c(CC=C(C)C)c4)c(=O)oc3c2C)OC1(C)C
inactive: viability, T/C [1] 106% | viability, T/C [2] 95.1% | viability, T/C [3] 93% | viability, T/C [4] 85.3% | viability, T/C [5] 54.1% | viability, T/C [6] 41.6% | viability, T/C [7] 102% | viability, T/C [8] 105% | viability, T/C [9] 90.7% | viability, T/C [10] 80% | viability, T/C [11] 57.7% | viability, T/C [12] 32.2% | viability, T/C [13] 88% | viability, T/C [14] 86.1% | viability, T/C [15] 78.3% | viability, T/C [16] 87.4% | viability, T/C [17] 52.8% | viability, T/C [18] 40.7% | viability, T/C [19] 84.4% | viability, T/C [20] 98.5% | viability, T/C [21] 93.3% | viability, T/C [22] 85.2% | viability, T/C [23] 50.9% | viability, T/C [24] 37.1% | viability, T/C [25] 93.6% | viability, T/C [26] 104% | viability, T/C [27] 89.1% | viability, T/C [28] 70.9% | viability, T/C [29] 47.7% | viability, T/C [30] 37.7% | viability, T/C [31] 98% | viability, T/C [32] 109% | viability, T/C [33] 91.3% | viability, T/C [34] 80.5% | viability, T/C [35] 56.6% | viability, T/C [36] 37.6%
339 nM: IC50 (second compound 1 µM)
277 nM: IC50 (second compound 3.16 µM)
494 nM: IC50 (second compound 0.0316 µM)
445 nM: IC50 (second compound 0.1 µM)
470 nM: IC50 (second compound 10 µM)
414 nM: IC50 (second compound 0.316 µM)

CCCS(=O)(=O)Nc1ccc(F)c(C(=O)c2c[nH]c3ncc(-c4ccc(Cl)cc4)cc23)c1F + COC1C(OC(N)=O)C(O)C(Oc2ccc3c(O)c(NC(=O)c4ccc(O)c(CC=C(C)C)c4)c(=O)oc3c2C)OC1(C)C
> 10000 nM: IC50 (second compound 1 µM)
inactive: viability, T/C [3] 112% | viability, T/C [4] 89.5% | viability, T/C [5] 93.1% | viability, T/C [6] 122% | viability, T/C (second compound 0.0316 µM, first compound 3.16 µM) 86.4% | viability, T/C (second compound 0.0316 µM, first compound 10 µM) 45% | viability, T/C [9] 108% | viability, T/C [10] 105% | viability, T/C [11] 83.3% | viability, T/C [12] 112% | viability, T/C (second compound 0.1 µM, first compound 3.16 µM) 91.3% | viability, T/C (second compound 0.1 µM, first compound 10 µM) 49.1% | viability, T/C [15] 110% | viability, T/C [16] 114% | viability, T/C [17] 118% | viability, T/C [18] 116% | viability, T/C (second compound 0.316 µM, first compound 3.16 µM) 105% | viability, T/C (second compound 0.316 µM, first compound 10 µM) 49.6% | viability, T/C [21] 84% | viability, T/C [22] 95.7% | viability, T/C [23] 104% | viability, T/C [24] 101% | viability, T/C (second compound 1 µM, first compound 3.16 µM) 98.8% | viability, T/C (second compound 1 µM, first compound 10 µM) 52.2% | viability, T/C [27] 89.7% | viability, T/C [28] 92.3% | viability, T/C [29] 89.2% | viability, T/C [30] 95.2% | viability, T/C (second compound 3.16 µM, first compound 3.16 µM) 95.5% | viability, T/C (second compound 3.16 µM, first compound 10 µM) 49.2% | viability, T/C [33] 81.9% | viability, T/C [34] 93.7% | viability, T/C [35] 90% | viability, T/C [36] 84% | viability, T/C (second compound 10 µM, first compound 3.16 µM) 83.7% | viability, T/C (second compound 10 µM, first compound 10 µM) 49.5%
9920 nM: IC50 (second compound 10 µM)
9970 nM: IC50 (second compound 0.316 µM)
8720 nM: IC50 (second compound 0.0316 µM)
9760 nM: IC50 (second compound 0.1 µM)
9780 nM: IC50 (second compound 3.16 µM)

CC[C@@]1(O)C(=O)OCc2c1cc1n(c2=O)Cc2cc3c(CN(C)C)c(O)ccc3nc2-1 + COC1C(OC(N)=O)C(O)C(Oc2ccc3c(O)c(NC(=O)c4ccc(O)c(CC=C(C)C)c4)c(=O)oc3c2C)OC1(C)C
66.1 nM: IC50 (second compound 1 µM)
98.1 nM: IC50 (second compound 3.16 µM)
79.5 nM: IC50 (second compound 10 µM)
inactive: viability, T/C (second compound 0.0316 µM, first compound 0.000316 µM) 102% | viability, T/C (second compound 0.0316 µM, first compound 0.001 µM) 92.5% | viability, T/C [1] 85.7% | viability, T/C [2] 72.3% | viability, T/C [3] 70.9% | viability, T/C [4] 47.7% | viability, T/C (second compound 0.1 µM, first compound 0.000316 µM) 80.4% | viability, T/C (second compound 0.1 µM, first compound 0.001 µM) 105% | viability, T/C [7] 80.4% | viability, T/C [8] 75.7% | viability, T/C [9] 72.1% | viability, T/C [10] 46.6% | viability, T/C (second compound 0.316 µM, first compound 0.000316 µM) 107% | viability, T/C (second compound 0.316 µM, first compound 0.001 µM) 106% | viability, T/C [13] 77.9% | viability, T/C [14] 65.9% | viability, T/C [15] 76.2% | viability, T/C [16] 54.6% | viability, T/C (second compound 1 µM, first compound 0.000316 µM) 83.4% | viability, T/C (second compound 1 µM, first compound 0.001 µM) 70.5% | viability, T/C [19] 75.8% | viability, T/C [20] 73.2% | viability, T/C [21] 60.8% | viability, T/C [22] 43.5% | viability, T/C (second compound 3.16 µM, first compound 0.000316 µM) 94.2% | viability, T/C (second compound 3.16 µM, first compound 0.001 µM) 93.7% | viability, T/C [25] 82.5% | viability, T/C [26] 83.5% | viability, T/C [27] 72.9% | viability, T/C [28] 48.6% | viability, T/C (second compound 10 µM, first compound 0.000316 µM) 84.8% | viability, T/C (second compound 10 µM, first compound 0.001 µM) 88.8% | viability, T/C [31] 81.1% | viability, T/C [32] 71.1% | viability, T/C [33] 73.8% | viability, T/C [34] 44.2%
> 100 nM: IC50 (second compound 0.0316 µM) | IC50 (second compound 0.316 µM)
86.5 nM: IC50 (second compound 0.1 µM)
